Key:
Type in all cases: in vivo
[1] = Sensory test (limiting method): enhancing the sourness of acid sugar solution; set-up: key: (equivalent citric acid content / citric acid content with flavone) × 100; conditions: citric acid 1.000 (g), flavone derivative (I) 0.00001 (g), 8 panellers; for Value of enhancing the sourness Ascending system: ascending system (from low concentration); for Value of enhancing the sourness Descending system: descending system (from high concentration)
Procedure: Compounds 1 to 11 of the flavone derivative (I) were used as a taste modifier to prepare acid sugar solution having compositions as follows:
As a control, 21 types of acid sugar solutions are used. In the control, the flavone derivative (I) is removed from the above composition and the content of citric acid is varied from 1.000 g to 1.500 g by 0.025 g.
Sensory tests were carried out by 8 trained panellers in accordance with a limiting method described in the Hand Book of Sensory evaluation, edited by Research Committee of sensory evaluation, Union of Japanese Scientists and Engineers, p.398 (1973) in use of acid sugar solutions containing respective flavone derivatives (I) and another acid sugar solutions having a various content of citric acid.
As for the content of citric acid, two types sensory tests were conducted, one was an ascending system (testing from solution with low concentration) and another was a descending system (testing from solution with high concentration).
The sensory evaluation was made by a value of enhancing the sourness. The value of enhancing the sourness was calculated by the following formula based on the content of citric acid in acid sugar solutions with varied concentration of citric acid, which has an equivalent stimulation with an acid sugar solution containing the flavone derivative (I) Value of enhancing the sourness = (content of citric acid in acid sugar solution sensed as an equivalent stimulation/content of citric acid in acid sugar solution containing the flavone derivative (I)) x 100 [formula]

[2] = Sensory test: refreshness, its continuity and quality of taste (hard candy); conditions: 0.1 (w/w)% flavor composition D (0.0001 (g) Compound 1) vs C, 8 panellers
Procedure: Compound 1 of the flavone derivative (I) was used as a taste modifier. Hard candy containing the above flavor composition C (control) or D (containing the flavone derivative (I)) was prepared.
First, 60 g of sugar, 40 g of thin malt syrup and 20 g of water were mixed and heated up to about 150°C to boil down, and then allowed to cool to about 120 °C while stirring. Next, the above flavor composition C was added thereto such that 0.1 (w/w)% of the flavor composition was contained and it is poured into a box, thereby preparing flavone derivative (I) free hard candy.
Alternatively, the flavor composition D was used in stead of the flavor composition C to prepare flavone derivative (I)-containing hard candy in accordance with the same method.
Sensory tests for obtained hard candy were carried out by 8 panellers comprised of 6 males and 2 females at the age from 20 to 40.

[3] = Sensory test: body and deliciousness (soft candy); conditions: 0.00001 (g) Compound 1, 8 panellers
Procedure: Compound 1 of the flavone derivative (I) was used as a taste modifier. Gelatin which was swelled in advance with a part of water, followed by heating to dissolve, granulated sugar, thick malt syrup and the remaining water was mixed, followed by boiling down to 130°C. Then, fondant paste, vegetable oils and fats, emulsifier, colorant and the flavone derivative (I) were added thereto, thereby preparing flavone derivative (I)-containing soft candy. Alternatively, flavone derivative (I) free soft candy was prepared as a control by the same method.
Sensory tests for obtained soft candy were conducted by 8 panellers comprised of 6 males and 2 females at the age from 20 to 40.

[4] = Five points evaluation test: saltiness and brackish taste modifying effect (soy sauce with low salt concentration); set-up: key: five-point scale; additive-free standard solution scored 2; conditions: average points of 5 panellers (2: no changes)
Procedure: Compound 5 of the flavone derivative (I) was used as a taste modifier. To commercially available soy sauce with low salt concentration (salt concentration: 7 w/w%), 1, 0.1 and 0.01 ppm of the flavone derivative (I) was added respectively to prepare sample solutions. Sensory tests were carried out for the respective concentrations of sample solutions and 1/2 diluted solutions thereof. Flavone derivative (I) free solutions were used as standard solutions.
The sensory tests were conducted by 5 trained panellers to examine saltiness modifying effect (so called saltiness adapting effect) and brackish taste modifying effect.
(§1) Each sample solution was evaluated assuming that the standard solution has the point of 2.

[5] = Five points evaluation test: saltiness and savor modifying effect (salted squid); set-up: key: five-point scale; untreated standard scored 2; conditions: average points of 5 panellers (2: no changes)
Procedure: Compound 5 of the flavone derivative (I) was used as a taste modifier. To commercially available salted squids, 1, 0.1 and 0.01 ppm of the flavone derivative (I) was added respectively to prepare samples. Sensory tests were carried out for the saltiness and the savor of salted squid. Flavone derivative (I) free salted squids were used as standards.
(§2) The sensory tests were conducted by 5 trained panellers to examine saltiness modifying effect (so called saltiness adapting effect) and savor modifying effect.
as §1

[6] = Sensory test: body and deliciousness (bread); conditions: 0.00002 (g) Compound 5, 8 panellers
Procedure: Compound 5 of the flavone derivative (I) was used as a taste modifier. Strong flour, yeast food, bread yeast and water were mixed and fermented for four hours at 28°C. Dough materials comprising strong flour, sugar, powdered skim milk, shortening and water, and the flavone derivative (I) were added thereto and subjected to dough process, followed by baking for 25 minutes at 220°C, thereby preparing bread. Flavone derivative (I) free bread was prepared in the same manner as a control.
Sensory tests for obtained bread were conducted by 8 panellers comprised of 6 males and 2 females at the age from 20 to 40.

[7] = Five points evaluation test: saltiness and savor modifying effect (ham made of pork loin); conditions: Ham made of pork loint, average points of 5 panellers (2: no changes)
Procedure: Compound 6 of the flavone derivative (I) were used as a taste modifier. Ham made of pork loin was prepared by a general method, in use of pickle solutions containing the flavone derivative (I) in the amount of 1, 0.1 and 0.01 ppm and flavone derivative (I) free standard pickle solution, respectively. Sensory tests were carried out for modifying effects of the saltiness and the savor.
as §2, §1
The pickle solution containing the above was prepared and cooled for a night. Then, raw meat (native pork) was molded and the pickle solution was injected at a rate of 120% to the molded meat. After injection, the molded meat was tumbled with tumbler (12 R. P. M./60 minutes) and salted for a night. It was packed in a container and subjected to dry at 60°C for 60 minutes, smoke at 70°C for 40 minutes and steam at 78°C (the temperature of the center raised to 70°C) to finish the processing. The processed meat was cooled for a night and evaluated.

[8] = Sensory test: refreshness, its continuity and quality of taste (mouth refreshing agent); conditions: 0.1 (w/w)% flavor composition F (0.00005 (g) Compound 9) vs E, 8 panellers
Procedure: Compound 9 of the flavone derivative (I) was used as a taste modifier. Mouth refreshing agent comprising the above flavor composition E (control) or F (containing the flavone derivative (I)) was prepared.
First, 30 g of ethanol, 10 g of glycerin, 2 g of polyoxyethylene hardened castor oil, 0.1 g of sodium saccharin, 0.005 g of chlorhexidine and 58 g of water were mixed, and the above flavor composition E was added thereto such that 0.1 (w/w)% of the flavor compositon was contained, thereby preparing flavone derivative (I) free mouth refreshing agent. Alternatively, the flavor composition F was used in stead of the flavor composition E to prepare flavone derivative (I)-containing mouth refreshing agent.
Sensory tests for obtained mouth refreshing agents were carried out by 8 panellers comprised of 6 males and 2 females at the age from 20 to 40.

[9] = 0.01 ppm, Soy sauce 1/2 dilution
[10] = 0.01 ppm, Soy sauce Undiluted solution
[11] = 0.10 ppm, Soy sauce 1/2 dilution
[12] = 0.10 ppm, Soy sauce Undiluted solution
[13] = 1.00 ppm, Soy sauce 1/2 dilution
[14] = 1.00 ppm, Soy sauce Undiluted solution

SMILES: COc1ccc(-c2cc(=O)c3c(OC)c(OC)c(OC)cc3o2)cc1OC [Compound 1, 3',4',5,6,7-pentamethoxyflavone]
- Value of enhancing the sourness Ascending system [1]: 119
- Value of enhancing the sourness Descending system [1]: 121
- Continuity of the refreshness: Those who sensed D additive is better [2]: 8 number of people
- Continuity of the refreshness: Those who sensed no difference [2]: 0 number of people
- Quality of taste: Those who sensed D additive is better [2]: 6 number of people
- Quality of taste: Those who sensed no difference [2]: 2 number of people
- Refreshness: Those who sensed D additive is better [2]: 7 number of people
- Refreshness: Those who sensed no difference [2]: 1 number of people
- Body: Those who sensed no difference [3]: 1 number of people
- Body: Those who sensed the flavone derivative (I) additive is better [3]: 7 number of people
- Deliciousness: Those who sensed no difference [3]: 0 number of people
- Deliciousness: Those who sensed the flavone derivative (I) additive is better [3]: 8 number of people
- Quality of taste: Those who sensed no difference [3]: 0 number of people
- Quality of taste: Those who sensed the flavone derivative (I) additive is better [3]: 8 number of people

SMILES: COc1cc(OC)c2c(=O)cc(-c3ccc(OC)c(OC)c3)oc2c1 [Compound 5, 3',4',5,7-tetramethoxyflavone]
- Value of enhancing the sourness Ascending system [1]: 118
- Value of enhancing the sourness Descending system [1]: 121
- Brackish Taste Modifying Effect [4, 9]: 3.6
- Saltiness Modifying Effect [4, 9]: 3.8
- Brackish Taste Modifying Effect [4, 10]: 3.4
- Saltiness Modifying Effect [4, 10]: 3.6
- Brackish Taste Modifying Effect [4, 11]: 4.0
- Saltiness Modifying Effect [4, 11]: 4.0
- Brackish Taste Modifying Effect [4, 12]: 3.4
- Saltiness Modifying Effect [4, 12]: 3.6
- Brackish Taste Modifying Effect [4, 13]: 4.0
- Saltiness Modifying Effect [4, 13]: 4.4
- Brackish Taste Modifying Effect [4, 14]: 4.0
- Saltiness Modifying Effect [4, 14]: 4.0
- Saltiness and Savor Modifying Effect: Saltiness ([5]; 0.01 ppm): 3.0
- Saltiness and Savor Modifying Effect: Savor ([5]; 0.01 ppm): 3.6
- Saltiness and Savor Modifying Effect: Total evaluation ([5]; 0.01 ppm): 3.4
- Saltiness and Savor Modifying Effect: Saltiness ([5]; 0.10 ppm): 3.4
- Saltiness and Savor Modifying Effect: Savor ([5]; 0.10 ppm): 3.8
- Saltiness and Savor Modifying Effect: Total evaluation ([5]; 0.10 ppm): 3.6
- Saltiness and Savor Modifying Effect: Saltiness ([5]; 1.00 ppm): 3.8
- Saltiness and Savor Modifying Effect: Savor ([5]; 1.00 ppm): 4.0
- Saltiness and Savor Modifying Effect: Total evaluation ([5]; 1.00 ppm): 3.8
- Body: Those who sensed no difference [6]: 1 number of people
- Body: Those who sensed the flavone derivative (I) additive is better [6]: 7 number of people
- Deliciousness: Those who sensed no difference [6]: 2 number of people
- Deliciousness: Those who sensed the flavone derivative (I) additive is better [6]: 6 number of people
- Quality of taste: Those who sensed no difference [6]: 1 number of people
- Quality of taste: Those who sensed the flavone derivative (I) additive is better [6]: 7 number of people

SMILES: COc1ccc(-c2cc(=O)c3c(OC)cc(OC)c(OC)c3o2)cc1 [Compound 6, 5,7,8,4'-tetramethoxyflavone]
- Value of enhancing the sourness Ascending system [1]: 120
- Value of enhancing the sourness Descending system [1]: 123
- Saltiness and Savor Modifying Effect: Saltiness ([7]; 0.10 ppm in pickle solution): 3.0
- Saltiness and Savor Modifying Effect: Savor ([7]; 0.10 ppm in pickle solution): 3.0
- Saltiness and Savor Modifying Effect: Total evaluation ([7]; 0.10 ppm in pickle solution): 3.0
- Saltiness and Savor Modifying Effect: Saltiness ([7]; 1.00 ppm in pickle solution): 3.4
- Saltiness and Savor Modifying Effect: Savor ([7]; 1.00 ppm in pickle solution): 3.4
- Saltiness and Savor Modifying Effect: Total evaluation ([7]; 1.00 ppm in pickle solution): 3.4

SMILES: COc1ccc(-c2cc(=O)c3c(O)c(OC)c(OC)c(OC)c3o2)cc1 [Compound 9, 5-hydroxy-4',6,7,8-tetramethoxyflavone]
- Value of enhancing the sourness Ascending system [1]: 117
- Value of enhancing the sourness Descending system [1]: 119
- Continuity of refreshness: Those who sensed F additive is better [8]: 8 number of people
- Continuity of refreshness: Those who sensed no difference [8]: 0 number of people
- Quality of taste: Those who sensed F additive is better [8]: 6 number of people
- Quality of taste: Those who sensed no difference [8]: 2 number of people
- Refreshness: Those who sensed F additive is better [8]: 7 number of people
- Refreshness: Those who sensed no difference [8]: 1 number of people

From patent EP0605261B1, “Use of a flavone derivative as taste modifier and a method of modifying taste” (SAN-EI GEN F.F.I., INC., priority 1992, dated 1994)
